# Results published in patent US20150176022A1, “HERBICIDE-RESISTANT SUNFLOWER PLANTS, POLYNUCLEOTIDES ENCODING HERBICIDE=RESISTANT ACETO HYDROXY ACID SYNTHASE LARGE SUBUNIT PROTEINS, AND METHODS OF USE” (priority 2013, published 2015).
# Key:
# Experiment in all cases: Greenhouse whole-plant imazapir dose response (Example 8)
# Type in all cases: in vivo, Helianthus annuus
# [1] = test system: sunflower GIM 5-7 (Manteiner Line, A205V); conditions: GIM5-7, 14 DAT
# Experimental: (§1) A greenhouse study was conducted to quantify and contrast the imazapir sensitivity of the mutants A122T and A205V in different genetic backgrounds at the whole plant level in sunflower. Seeds of the different sunflower lines that were used in this study were obtained under field conditions.
# (§2) Seeds were sown in Petri dishes and, after germination, plantlets were transplanted to pots of 10 cm of diameter in a potting media consisting of equal parts of vermiculite, soil and sand. Plants were grown in a greenhouse under natural light conditions supplemented with 400 W sodium halide lamps to provide a 16 hrs daylength. Day/night temperatures were 25 and 20° C., respectively. At the V2 stage 10 plants of each genotype were randomly assigned to each treatment consisting of […] imazapir doses (0, 40, 80, 160, 240, 320, 400 and 480 g ai/ha), and a zero-time biomass determination. Experiment was arranged as a randomized block design with a full factorial (sunflower line×treatment) arrangement of treatments and 10 replications.
# (§3) On the day of herbicide application ten plants of each genotype were cut at the cotyledonal node and dried at 60° C. for 48 hrs zero-time for dried weight determination. […] Height was determined as the distance between the cotyledonal node and the apex of each plant. For root biomass determination, each plant was taken from the pot and the potting media was washed out from the roots. Above ground biomass data from each line were converted to biomass accumulation after application by subtracting the appropriate average zero-time biomass from each sample. Dry biomass data were converted to percentages of the untreated control plants within each line to allow direct comparisons between groups.
# [2] = test system: sunflower GM1606 (Manteiner Line, A122T); conditions: 14 DAT
# Experimental: as §1, §2, §3
# [3] = test system: sunflower GM40 (Manteiner Line, A122T); conditions: 14 DAT
# Experimental: as §1, §2, §3
# [4] = test system: sunflower TH11 (Hybrid, A122T); conditions: 14 DAT
# Experimental: as §1, §2, §3
# [5] = test system: sunflower TH6 (Hybrid, A122T); conditions: 14 DAT
# Experimental: as §1, §2, §3
smiles,measurement,setting,value
"CC(C)C1(C)N=C(c2ncccc2C(=O)O)NC1=O (centres unmarked) [imazapir, imazapyr]","biomass accumulation (dry biomass, % of untreated)",[1]; 0.5× (40 g ai/ha),92.9%
same,plant height (% of untreated),[1]; 0.5× (40 g ai/ha),79.1%
same,root dry weight (% of untreated),[1]; 0.5× (40 g ai/ha),79.2%
same,"biomass accumulation (dry biomass, % of untreated)",[1]; 1× (80 g ai/ha),75.1%
same,plant height (% of untreated),[1]; 1× (80 g ai/ha),76.7%
same,root dry weight (% of untreated),[1]; 1× (80 g ai/ha),56.3%
same,"biomass accumulation (dry biomass, % of untreated)",[1]; 2× (160 g ai/ha),55.1%
same,plant height (% of untreated),[1]; 2× (160 g ai/ha),57.7%
same,root dry weight (% of untreated),[1]; 2× (160 g ai/ha),40.6%
same,"biomass accumulation (dry biomass, % of untreated)",[1]; 3× (240 g ai/ha),45.6%
same,plant height (% of untreated),[1]; 3× (240 g ai/ha),55.3%
same,root dry weight (% of untreated),[1]; 3× (240 g ai/ha),40.2%
same,"biomass accumulation (dry biomass, % of untreated)",[1]; 4× (320 g ai/ha),31.8%
same,plant height (% of untreated),[1]; 4× (320 g ai/ha),27.3%
same,root dry weight (% of untreated),[1]; 4× (320 g ai/ha),34.0%
same,"biomass accumulation (dry biomass, % of untreated)",[1]; 5× (400 g ai/ha),34.2%
same,plant height (% of untreated),[1]; 5× (400 g ai/ha),37.2%
same,root dry weight (% of untreated),[1]; 5× (400 g ai/ha),48.5%
same,"biomass accumulation (dry biomass, % of untreated)",[1]; 6× (480 g ai/ha),36.8%
same,plant height (% of untreated),[1]; 6× (480 g ai/ha),30.0%
same,root dry weight (% of untreated),[1]; 6× (480 g ai/ha),43.1%
same,"biomass accumulation (dry biomass, % of untreated)",[2]; 0.5× (40 g ai/ha),100.0%
same,plant height (% of untreated),[2]; 0.5× (40 g ai/ha),97.0%
same,root dry weight (% of untreated),[2]; 0.5× (40 g ai/ha),100%
same,"biomass accumulation (dry biomass, % of untreated)",[2]; 1× (80 g ai/ha),100.0%
same,plant height (% of untreated),[2]; 1× (80 g ai/ha),95.7%
same,root dry weight (% of untreated),[2]; 1× (80 g ai/ha),100.0%
same,"biomass accumulation (dry biomass, % of untreated)",[2]; 2× (160 g ai/ha),97.6%
same,plant height (% of untreated),[2]; 2× (160 g ai/ha),95.2%
same,root dry weight (% of untreated),[2]; 2× (160 g ai/ha),92.5%
same,"biomass accumulation (dry biomass, % of untreated)",[2]; 3× (240 g ai/ha),95.4%
same,plant height (% of untreated),[2]; 3× (240 g ai/ha),95.7%
same,root dry weight (% of untreated),[2]; 3× (240 g ai/ha),85.2%
same,"biomass accumulation (dry biomass, % of untreated)",[2]; 4× (320 g ai/ha),90.5%
same,plant height (% of untreated),[2]; 4× (320 g ai/ha),94.1%
same,root dry weight (% of untreated),[2]; 4× (320 g ai/ha),87.0%
same,"biomass accumulation (dry biomass, % of untreated)",[2]; 5× (400 g ai/ha),85.3%
same,plant height (% of untreated),[2]; 5× (400 g ai/ha),94.3%
same,root dry weight (% of untreated),[2]; 5× (400 g ai/ha),88.1%
same,"biomass accumulation (dry biomass, % of untreated)",[2]; 6× (480 g ai/ha),83.0%
same,plant height (% of untreated),[2]; 6× (480 g ai/ha),91.4%
same,root dry weight (% of untreated),[2]; 6× (480 g ai/ha),69.5%
same,"biomass accumulation (dry biomass, % of untreated)",[3]; 0.5× (40 g ai/ha),96.5%
same,plant height (% of untreated),[3]; 0.5× (40 g ai/ha),99.6%
same,root dry weight (% of untreated),[3]; 0.5× (40 g ai/ha),100%
same,"biomass accumulation (dry biomass, % of untreated)",[3]; 1× (80 g ai/ha),94.1%
same,plant height (% of untreated),[3]; 1× (80 g ai/ha),97.4%
same,root dry weight (% of untreated),[3]; 1× (80 g ai/ha),100%
same,"biomass accumulation (dry biomass, % of untreated)",[3]; 2× (160 g ai/ha),97.6%
same,plant height (% of untreated),[3]; 2× (160 g ai/ha),95.2%
same,root dry weight (% of untreated),[3]; 2× (160 g ai/ha),100%
same,"biomass accumulation (dry biomass, % of untreated)",[3]; 3× (240 g ai/ha),95.8%
same,plant height (% of untreated),[3]; 3× (240 g ai/ha),93.0%
same,root dry weight (% of untreated),[3]; 3× (240 g ai/ha),92.2%
same,"biomass accumulation (dry biomass, % of untreated)",[3]; 4× (320 g ai/ha),88.3%
same,plant height (% of untreated),[3]; 4× (320 g ai/ha),93.0%
same,root dry weight (% of untreated),[3]; 4× (320 g ai/ha),96.1%
same,"biomass accumulation (dry biomass, % of untreated)",[3]; 5× (400 g ai/ha),85.6%
same,plant height (% of untreated),[3]; 5× (400 g ai/ha),93.9%
same,root dry weight (% of untreated),[3]; 5× (400 g ai/ha),84.2%
same,"biomass accumulation (dry biomass, % of untreated)",[3]; 6× (480 g ai/ha),76.8%
same,plant height (% of untreated),[3]; 6× (480 g ai/ha),84.3%
same,root dry weight (% of untreated),[3]; 6× (480 g ai/ha),74.3%
same,Phytotoxicity Index,[4]; 0.5× (40 g ai/ha),0.4
same,"biomass accumulation (dry biomass, % of untreated)",[4]; 0.5× (40 g ai/ha),96.6%
same,plant height (% of untreated),[4]; 0.5× (40 g ai/ha),100.4%
same,root dry weight (% of untreated),[4]; 0.5× (40 g ai/ha),100%
same,Phytotoxicity Index,[4]; 1× (80 g ai/ha),0.4
same,"biomass accumulation (dry biomass, % of untreated)",[4]; 1× (80 g ai/ha),93.9%
same,plant height (% of untreated),[4]; 1× (80 g ai/ha),99.9%
same,root dry weight (% of untreated),[4]; 1× (80 g ai/ha),99.0%
same,Phytotoxicity Index,[4]; 2× (160 g ai/ha),0.4
same,"biomass accumulation (dry biomass, % of untreated)",[4]; 2× (160 g ai/ha),81.6%
same,plant height (% of untreated),[4]; 2× (160 g ai/ha),92.0%
same,root dry weight (% of untreated),[4]; 2× (160 g ai/ha),86.1%
same,Phytotoxicity Index,[4]; 3× (240 g ai/ha),0.5
same,"biomass accumulation (dry biomass, % of untreated)",[4]; 3× (240 g ai/ha),75.8%
same,plant height (% of untreated),[4]; 3× (240 g ai/ha),90.5%
same,root dry weight (% of untreated),[4]; 3× (240 g ai/ha),81.5%
same,Phytotoxicity Index,[4]; 4× (320 g ai/ha),1.0
same,"biomass accumulation (dry biomass, % of untreated)",[4]; 4× (320 g ai/ha),75.0%
same,plant height (% of untreated),[4]; 4× (320 g ai/ha),90.8%
same,root dry weight (% of untreated),[4]; 4× (320 g ai/ha),72.6%
same,Phytotoxicity Index,[4]; 5× (400 g ai/ha),2.0
same,"biomass accumulation (dry biomass, % of untreated)",[4]; 5× (400 g ai/ha),60.1%
same,plant height (% of untreated),[4]; 5× (400 g ai/ha),84.4%
same,root dry weight (% of untreated),[4]; 5× (400 g ai/ha),68.9%
same,Phytotoxicity Index,[4]; 6× (480 g ai/ha),2.5
same,"biomass accumulation (dry biomass, % of untreated)",[4]; 6× (480 g ai/ha),59.6%
same,plant height (% of untreated),[4]; 6× (480 g ai/ha),84.4%
same,root dry weight (% of untreated),[4]; 6× (480 g ai/ha),45.3%
same,Phytotoxicity Index,[5]; 0.5× (40 g ai/ha),0.5
same,"biomass accumulation (dry biomass, % of untreated)",[5]; 0.5× (40 g ai/ha),100%
same,plant height (% of untreated),[5]; 0.5× (40 g ai/ha),99.2%
same,root dry weight (% of untreated),[5]; 0.5× (40 g ai/ha),100%
same,Phytotoxicity Index,[5]; 1× (80 g ai/ha),0.5
same,"biomass accumulation (dry biomass, % of untreated)",[5]; 1× (80 g ai/ha),97.2%
same,plant height (% of untreated),[5]; 1× (80 g ai/ha),98.6%
same,root dry weight (% of untreated),[5]; 1× (80 g ai/ha),98.1%
same,Phytotoxicity Index,[5]; 2× (160 g ai/ha),0.5
same,"biomass accumulation (dry biomass, % of untreated)",[5]; 2× (160 g ai/ha),97.9%
same,plant height (% of untreated),[5]; 2× (160 g ai/ha),100.3%
same,root dry weight (% of untreated),[5]; 2× (160 g ai/ha),96.2%
same,Phytotoxicity Index,[5]; 3× (240 g ai/ha),0.5
same,"biomass accumulation (dry biomass, % of untreated)",[5]; 3× (240 g ai/ha),98.2%
same,plant height (% of untreated),[5]; 3× (240 g ai/ha),99.6%
same,root dry weight (% of untreated),[5]; 3× (240 g ai/ha),79.3%
same,Phytotoxicity Index,[5]; 4× (320 g ai/ha),0.5
same,"biomass accumulation (dry biomass, % of untreated)",[5]; 4× (320 g ai/ha),97.8%
same,plant height (% of untreated),[5]; 4× (320 g ai/ha),101.0%
same,root dry weight (% of untreated),[5]; 4× (320 g ai/ha),78.4%
same,Phytotoxicity Index,[5]; 5× (400 g ai/ha),0.5
same,"biomass accumulation (dry biomass, % of untreated)",[5]; 5× (400 g ai/ha),85.1%
same,plant height (% of untreated),[5]; 5× (400 g ai/ha),87.0%
same,root dry weight (% of untreated),[5]; 5× (400 g ai/ha),85.8%
same,Phytotoxicity Index,[5]; 6× (480 g ai/ha),0.5
same,"biomass accumulation (dry biomass, % of untreated)",[5]; 6× (480 g ai/ha),79.5%
same,plant height (% of untreated),[5]; 6× (480 g ai/ha),79.6%
same,root dry weight (% of untreated),[5]; 6× (480 g ai/ha),57.3%
